The text below walks through data of US20250314668A1, “DNAZYMES FOR SENSING AND IMAGING TARGET MOLECULES” (BOARD OF REGENTS, THE UNIVERSITY OF TEXAS SYSTEM, priority 2024, published 2025).

The subject of one series is SH-SY5Y cells. Briefly: Cell death in FDX1 regulated SH-SY5Y cells with Aβ-Cu treatment. In kind it is cell-based. The conditions noted are these: FDX1 knocked down cells; 25 µM Tempol or 100 μM Trolox. From the text:
FIGS. 21A-21C depict cell death in FDX1 regulated SH-SY5Y cells with Aβ-Cu treatment. […] For all graphs, ****p<0.0001, ***p<0.001, **p<0.01, and ns is p>0.05.
Both oxidative stresses and proteotoxic stresses mediated cuproptosis were also observed in neurons during copper overload by elesclomol (ES), which is a copper ionophore, contributing to neuronal death. The high redox properties of copper can promote the Aβ-induced oxidative stress and subsequent neuronal death. […] The hypothesis is that the property of Aβ can be acted as a copper ionophore is part of what contributes to the pathological effects of cuproptosis in AD. To explore more about whether cuproptosis is related to AD neurodegeneration and understand the role of Aβ-Cu in neuronal death, the viability of SH-SY5Y cells with FDX1 knocked down by RNAi were monitored by stimulating with different CuCl2 concentration and 10 μM Aβ for overnight. […] Cu^2+ ions bound to Aβ are consistently more toxic to neuronal cells than Aβ in the absence of Cu^2+ ions.

For a further series, the system named is cultured cell lines. Description: Iron redox changes in cultured cell lines with ferroptosis inducers and NCOA4 regulators. In kind it is cell-based.
The test system of series [1] is HepG2 cells. Description: MTT assay of cytotoxicity of RSL3. In kind it is cell-based. As to conditions: 1 μM RSL3, over 8 hours. How it is done: To measure the cytotoxicity of RSL3 to HepG2 cells, a standard MTT assay was used. HepG2 cells were seeded at a density of 15,000 cells per well in 96-well plates. When the cells grew to 80% confluence, the medium was replaced by the normal MEM containing 1 μM RSL3 at different time points (0, 2, 4, 6, 8, and 10 hours). Afterward, the cell medium was replaced by the iron-deficient MEM containing PEI-ErS or PEI-iErS, incubated in a 37° C., 5% CO2 incubator for another 4 hours. The absorbance at 570 nm was measured with a SpectraMax M2 microplate reader to obtain the MTT assay readings. The untreated cells were set as a blank control for normalization.
(Tetrazolium dyes change colour on reduction, which living cells bring about.)

For series [2], the system named is HepG2 cells. Briefly: Ferroptosis-induced fluctuations of labile Fe^2+ and Fe^3+ pools (RSL3). It is filed as cell-based. As to the method:
Ferroptosis-induced fluctuations of labile Fe^2+ and Fe^3+ pools: HepG2 cells were treated with 1 μM RSL3 in normal MEM at different time points (0, 2, 4, 6, 8, and 10 hours). Then, the cell medium was replaced by iron-deficient MEM containing PEI-ErS or PEI-iErS and incubated in a 37° C., 5% CO2 incubator for another 4 hours. Before imaging, the cells were stained by LysoTracker Red and Hoechst 33258 for 15 min. After washing with PBS, the cells were incubated in iron-deficient MEM during the imaging.

The next series relates to HepG2 or Hela cells. Briefly: Simultaneous imaging of labile Fe^2+ and Fe^3+ in living cells treated with Tf or DFO. It is filed as cell-based. How it is done:
For delivery of DNAzyme sensors using PEI (66, 67), the corresponding Fe(II)-H5-ErS, Fe(II)-H5-iErS, Fe(III)-B12-ErS, and Fe(III)-B12-iErS (final concentration of 10 μM) were mixed in the Fe^2+ buffer and Fe^3+ buffer separately. The mixtures were annealed at 95° C. for 5 min and stored at room temperature to allow full hybridization. PEI (25 kDa) was dissolved in water at 1 mg/ml. […] The normal cell medium was replaced with iron-deficient medium before the PEI-ErS or PEI-iErS was added to the cells grown in the plates.
After incubating HepG2 cells with PEI-ErS or PEI-iErS complex for 4 hours, cells were washed with phosphate-buffered saline (PBS) twice to remove excess amounts of complexes in medium. Then, the cells were stained by Hoechst 33258 for 15 min. Images were obtained using a Zeiss LSM 880 confocal microscope at 63× oil objective lens with numerical aperture 1.40 and immersion medium Immersol 518 F (Zeiss) at the UIUC IGB Core Facilities. Florescence emission of Hoechst 33258 was measured over 450 to 500 nm with excitation at 401 nm. Fe(II)-H5 was excited by 488 nm and measured over 500 to 550 nm, and Fe(III)-B12 was excited at 633 nm and measured over 640 to 700 nm. A laser power of 67% and pinhole size of 1 […] (AU) were used for the cellular images. Acquired images were analyzed by ImageJ using JACoP (88, 89). No background subtraction, Z-stacks, Gaussian blur filter, or change thresholds were performed for visualizing the figures. For cell fluorescence quantification, the study quantified the average fluorescence signals intensity in five cells (for TurboFect transfected cells) or five LysoTracker-labeled regions in different cells (for PEI transfected cells), per picture and three pictures per group with Image J (88), for the statistical comparison between groups.
Simultaneous imaging of labile Fe^2+ and Fe^3+ in living cells: HepG2 or Hela cells were cultured in glass-bottom dishes until about 70% confluence. The cells were pretreated with iron-deficient MEM containing either 100 μM DFO, 100 μM ferric ammonium citrate, […] holo-Tf, or 50 μM Tf for 4 hours, and then, the medium was replaced with an iron-deficient MEM containing PEI-ErS or PEI-iErS complexes or Opti-MEM containing 1 μl of TurboFect transfection reagent as described above for 4 hours. Before imaging, the cells were stained by LysoTracker Red and Hoechst 33258 for 15 min. After washing with PBS, the cells were incubated in iron-deficient MEM or regular DMEM, respectively, during the imaging.
Data processing and statistical analysis: To have a direct comparison of the iron amount between groups, the background signals were normalized by subtracting the fluorescence signals in iErS groups from the ErS groups (F-F0). No Z-stacks or change thresholds were used for statistical analysis. Graphs were plotted with GraphPad (GraphPad Software Inc.) or Origin (OriginLabs Corporation) and correspond to a single experiment. Bars represent means±SEM. Two-tailed distribution and two-sample equal variance t test were used for analyzing significance. Dixon's Q tests were performed to identify and exclude outliners. *P<0.05, **P<0.01, and ***P <0.001. […] The presented data described the quantification from single representative replicates from those biological replicates.

The test system of a further series is cells. Description: Fe signal changes detected with DNAzyme sensors and flow cytometry. In kind it is cell-based. The conditions noted are these: treated with Transferrin. From the text: Preliminary results: The study detected the Fe signal changes with DNAzyme sensors and flow cytometry.
Series [3] concerns corpus callosum brain region. Description: Iron changes in the cuprizone model of Multiple Sclerosis. It is filed as in vivo, mice. As to conditions: over the course of cuprizone treatment; back to normal upon removal. As to the method:
The study also co-stained the sensors with other antibodies to identify cell identities in neuron degenerative diseases, such as Alzheimer's disease. The antibody staining was performed before staining iron sensors. After traditional immunochemistry staining (need to avoid antigen exposures that require H2O2 or other oxidative reagents), brain slices were changed into the BisTris buffer for iron sensors and incubated with iron sensors for 30 minutes. Then the brain slices were mounted onto slices and imaged immediately to minimize the background cleavage or degradation of the sensors. The iron redox changes in specific cell types were evaluated by taking images with a confocal microscope and analyzing the iron signal that colocalized with specific antibodies. […] The study also observed a decrease in iron levels in microglial cells of wildtype mice brains in the hippocampal region, but an increase in iron levels in 3×Tg mice brains. […] More detailed investigations are still going on to test how they are correlated with this disease process.
With a similar technique, the iron changes were studied with the cuprizone model of Multiple Sclerosis as well. […] The Fe^3+/Fe^2+ elevation was back to normal upon the removal of the chemical, and remyelination of the mice brains.

Series [4] can be described thus: Fluorescence based activity assay of Cu^2+ sensor. It is filed as biochemical. The conditions noted are these: fluorescence at 520 nm, 30 min. How it is done: (§1) Fluorescence based activity assay: For Cu^+ sensor, […] of Cu1 aS Cy5 and 9 µM of Cu1 aE Q were annealed in a buffer of 50 mM Bis-Tris, 150 mM NaCl, pH 7.5. For each test, 2 μL of the annealed sensor was diluted into 194 μL of buffer (50 mM Bis-Tris, 150 mM NaCl, pH 7.5), and 2 μL of 5 mM ascorbate was added. Then 2 μL of 2 μl different concentration of Cu^2+ were added. The signaling kinetics were monitored (Ex=635 nm; Em=666 nm) using Hitachi fluorimeter. For Cu^2+ sensor, the DNAzyme complex was formed by annealing the 5 μM of Cu2 PSrS FAM and 7.5 μM Cu2 aE Q in 50 mM MES, 25 mM NaCl, pH 6.0. For each well, 2 μL of the annealed sensor was diluted into 196 μL of buffer (50 mM MES, 25 mM NaCl, pH 6.0). 2 μL different concentration of Cu^2+ were added to initiate cleavage reaction, and the signaling kinetics were monitored (Ex=488 nm; Em=520 nm) using Hitachi fluorimeter.

Series [5] can be described thus: Gel based activity assay of Cu^2+ DNAzyme. It is filed as biochemical. How it is done: (§2) FIG. 10 depicts gel and fluorescence-based activity assay for Cu^+ and Cu^2+ DNAzyme. PAGE Gel images of Cu^+ DNAzyme cleaving the substrate in the presence of various concentrations of Cut. Lane 1: Cu^+ aS, Lane 2: Cu^+ aE, Lane 3-10: the concentration of Cu^2+ is 0 nM, 125 nM, 250 nM, 500 nM, 1 μM, 2 μM, 4 μM, and 8 μM, respectively, the concentration of ascorbate is 50 μM. Quantification of Cu^+. Inset is the linear response at low Cu^+ concentrations. denaturing gel images of Cu^2+ DNAzyme cleaving the substrate in the presence of various concentrations of Cu^2+. Lane1-8: the concentration of Cu^2+ is 0 μM, 1 μM, 2 μM, 4 μM, 6 μM, 8 μM, 10 μM, and 20 μM, respectively. Quantification of Cu^2+. Inset: the linear response at low Cu^2+ concentrations.
(§3) Gel based activity assays: For Cu^+ DNAzyme, 1 μM of Cu1 aS and 2 μM of Cu1 aE were added in 50 mM Bis-Tris, 150 mM NaCl, pH 7.5. The solution was heated at 90° C. for 5 min and slowly cooled down to room temperature for more than 1 h to anneal the DNAzyme. After annealing, each sample contains a final of 5 μL of 0.25 μM DNAzyme complex. 2 ul of 50 μM of freshly prepared ascorbate was mixed with DNAzyme complex. After adding 2 μl different concentration of Cu^2+, incubated at room temperature for 60 min. […] The gels were analyzed with Bio-Rad Gel Doc 2000 imaging system.

Series [6] in a line: Fluorescence based activity assay of Cu^+ sensor. In kind it is biochemical. As to conditions: fluorescence at 666 nm, 30 min. How it is done:
as §1

The nature of series [7]: Gel based activity assay of Cu^+ DNAzyme. It is filed as biochemical. How it is done:
as §2, §3

[8] abbreviates: 5 μM Tf group, iron-deficient medium.

In the oligonucleotide strings, read from the 5' end, every base follows the letter of its sugar. An asterisk marks phosphorothioate; unmarked linkages are phosphodiester. Other units and linkages are bracketed, terminal groups are in braces. A string of capitals states the bases alone. d = 2'-deoxy (DNA); r = 2'-OH (RNA)

Regarding `CC1(C)CC(O)CC(C)(C)N1[O]` [Tempol], the “rescue of Aβ-Cu induced cell death by ROS scavenger” value with SH-SY5Y cells is “fail to fully rescue”.

Regarding `COC(=O)c1ccc([C@@H]2c3[nH]c4ccccc4c3C[C@@H](C(=O)OC)N2C(=O)CCl)cc1` [RSL3, RAS-selective lethal 3], in the series on cultured cell lines, the “Fe^2+ and Fe^3+ during induced ferroptosis” value is given as “increased”; the “Fe^3+/Fe^2+ ratio during induced ferroptosis” value is on record as “decreased”. The MTT assay result with HepG2 cells [1] is on record as “cell death”. In the series with HepG2 cells [2] (1 μM RSL3, from 0 to 2 hours, LysoTracker-labeled region), the “increase of Fe^2+” value is 2.3 fold. In the series on HepG2 cells [2] (1 μM RSL3, from 0 to 4 hours, LysoTracker-labeled region), the “increase of Fe^3+” value is given as 2.8 fold. Besides, the “increase of Fe^2+” value with HepG2 cells [2] (1 μM RSL3, from 2 to 4 hours, LysoTracker-labeled region) was 4.3 fold. Further, the “Fe^3+/Fe^2+ ratio (Fe redox) during ferroptosis” value with HepG2 cells [2] (RSL3-induced ferroptosis, endo-lysosomes) was “continuous decrease”. Also, the “Fe^2+ and Fe^3+ levels in later stage of ferroptosis” value in the series on HepG2 cells [2] (after 4 hours) was “both iron levels decreased”.

transferrin [Tf]: in the series with HepG2 or Hela cells (setting [8]), the “increase of Fe^2+ sensor signal” value is reported as 1.9 fold and the “increase of Fe^3+ sensor signal” value amounted to 1.6 fold. Moreover, the “increase for both Fe^3+ and Fe^2+” value in the series with HepG2 or Hela cells (normal cell media) is on record as “around 4 fold”. In addition, in the series on HepG2 or Hela cells (treated cells), the “change of the Fe^3+/Fe^2+ ratio” value is reported as “No significant change”. Moreover, in the series with cells, the “cells with elevated fluorescence intensity (moved from Q4 to Q2)” value was “More than 20%”.

Consider `O=C(NN=C1CCCCC1)C(=O)NN=C1CCCCC1` [cuprizone], for which the “iron redox (Fe^3+/Fe^2+) in corpus callosum” value in [3] is “elevated iron redox”.

With `Cc1c(C)c2c(c(C)c1O)CCC(C)(C(=O)O)O2` (stereo not shown) [Trolox], the “rescue of Aβ-Cu induced cell death by ROS scavenger” value in the series with SH-SY5Y cells is “fail to fully rescue”.

In series [4], “Cu^2+ DNAzyme: substrate strand Cu2 PSrS annealed with enzyme strand Cu2 aE (chain 1 dAdGdTdCdAdCdTdAdTrA*dGdGdAdAdGdAdTdGdGdCdGdAdAdA; chain 2 TTTCGCCATCTTCACCAGGAAATAGTGACT; chain 2: unmodified DNA)” returned a detection limit of 35.16 nM. In series [5], the “activity with high ascorbic” value is “no activity” and the “selectivity between copper oxidation states” value is “excellent selectivity”.

B1: Cu^+ DNAzyme: substrate strand Cu1 aS annealed with enzyme strand Cu1 aE (nucleic acid)
chain 1: AGCTTCTTTCTAATACGGCTTACCAC
chain 2: GTGGTAAGCCTGGGCCTCTTTCTTTTTAAGAAAGAAC
modifications: DNA, backbone not given here; Cy5 on substrate, Iowa Black RQ on enzyme, further chemistry not fully specified
notes: substrate strand Cu1 aS annealed with enzyme strand Cu1 aE
B1 gave a detection limit in [6] of 53.92 nM. In addition, the “selectivity between copper oxidation states” value in [7] is “excellent selectivity”. For the same molecule, the “cleavage dependence on ascorbic” value in series [7] (no cleavage products at low concentrations of ascorbic) is listed as “ascorbic concentration dependent cleavage”.
